Where two headings read alike, the source gives them in different places.
System: four pancreatic cancer cell lines (AsPC1, Hs766T, MiaPaCa2, Panc1)
Protocol: Mock-treated cells were cultured with the equivalent volume of PBS alone.
Total RNA was isolated from cultured cells using TRIZOL reagent (invitrogen, Carlsbad, Calif.) and purified using RNeasy Mini Kit (Qiagen, Valencia, Calif.). First- and second-stranded cDNA was synthesized from 10 μg of total RNA using 17-dT) primer (Genset Corp., La Jolla, Calif.) and Superscript Choice system (Invitrogen). Labeled cRNA was synthesized from the purified cDNA by in vitro transcription reaction using the BioArray High Yield RNA Transcript Labeling Kit (Enzo Diagnostics, Inc., Farmingdale, N.Y.) at 37° C. for 6 h. The cRNA was fragmented at 94° C. for 35 min. in a fragmentation buffer [40 mM Tris-acetate @ pH 8.1, 100 mM potassium acestate, and 30 mM magnesium acetate]. The fragmented cRNA was then hybridized to the Human Genome U133A chips (Affymetrix, Santa Clara, Calif.) with 18462 unique gene/EST transcripts at 45° C. for 16 h. The washing and staining procedure was performed in the Affymetrix Fluidics Station according to the manufacturer's instructions. The probes were then scanned using a laser scanner, and signal intensity for each transcript (background-subtracted and adjusted for noise) was calculated using Microarray Suite Software 5.0 (Affymetrix).
Fold change analysis of signal intensities obtained from oligonucleotide microarrays between the two treatment groups was performed using Data Mining software (Afrymetrix).
The global changes in gene expression proxies induced by 5Aza-dC in four pancreatic cancer cell lines (AsPCl, Hs766T, MiaPaCa2, and Panel) were determined using the Afrymetrix U133 oligonucleotide microarrays with 18462 probes sets (transcripts) covering over 13000 full-length sequences of known genes.

Structure (SMILES): Nc1ncn([C@H]2C[C@H](O)[C@@H](CO)O2)c(=O)n1 [5Aza-dC, 5 aza 2′ deoxycytidine]
- Induced by 5Aza-dC alone? (DAZL): Yes
- Induced by 5Aza-dC alone? (DEAD box RNA helicase (VASA)): No
- Induced by 5Aza-dC alone? (EDR1): Yes
- Induced by 5Aza-dC alone? (EGR4): No
- Induced by 5Aza-dC alone? (EREG): No
- Induced by 5Aza-dC alone? (GADD45B): No
- Induced by 5Aza-dC alone? (GAGE1): Yes
- Induced by 5Aza-dC alone? (GAGE2 (Table 2)): No
- Induced by 5Aza-dC alone? (GAGE2 (Table 3)): Yes
- Induced by 5Aza-dC alone? (GAGE3): Yes
- Induced by 5Aza-dC alone? (GAGE4): Yes
- Induced by 5Aza-dC alone? (GAGE6): Yes
- Induced by 5Aza-dC alone? (GAGE7B (Table 2)): Yes
- Induced by 5Aza-dC alone? (GAGE7B (Table 3)): No
- Induced by 5Aza-dC alone? (GAS1): No
- Induced by 5Aza-dC alone? (H1 historic family, member 2 (BC002649)): No
- Induced by 5Aza-dC alone? (HEP27): No
- Induced by 5Aza-dC alone? (HMOX1): No
- Induced by 5Aza-dC alone? (HPSE): No
- Induced by 5Aza-dC alone? (HSPA1A): No
- Induced by 5Aza-dC alone? (ID2): No
- Induced by 5Aza-dC alone? (ING1): No
- Induced by 5Aza-dC alone? (ITM3): No
- Induced by 5Aza-dC alone? (KLK12): Yes
- Induced by 5Aza-dC alone? (KRT17): No
- Induced by 5Aza-dC alone? (LHX2): Yes
- Induced by 5Aza-dC alone? (LIPC): Yes
- Induced by 5Aza-dC alone? (MAGE1): Yes
- Induced by 5Aza-dC alone? (MAGEC1): No
- Induced by 5Aza-dC alone? (MBD1): No
- Induced by 5Aza-dC alone? (MLH1): No
- Induced by 5Aza-dC alone? (MMP1): No
- Induced by 5Aza-dC alone? (NGFR): Yes
- Induced by 5Aza-dC alone? (NK4): Yes
- Induced by 5Aza-dC alone? (NOTCH3): No
- Induced by 5Aza-dC alone? (P-glycoprotein (mdr1)): No
- Induced by 5Aza-dC alone? (PAX6): Yes
- Induced by 5Aza-dC alone? (PIG11): Yes
- Induced by 5Aza-dC alone? (PRG1): No
- Induced by 5Aza-dC alone? (S100A2): Yes
- Induced by 5Aza-dC alone? (S100P): No
- Induced by 5Aza-dC alone? (SALL1): Yes
- Induced by 5Aza-dC alone? (SARP2): Yes
- Induced by 5Aza-dC alone? (SGCE): No
- Induced by 5Aza-dC alone? (SPANXA1): No
- Induced by 5Aza-dC alone? (SPANXC): No
- Induced by 5Aza-dC alone? (STAT3): No
- Induced by 5Aza-dC alone? (STC1): Yes
- Induced by 5Aza-dC alone? (TERT): No
- Induced by 5Aza-dC alone? (UCHL1): Yes
- Induced by 5Aza-dC alone? (UCPH): No
- Induced by 5Aza-dC alone? (ULBP2): Yes
- Induced by 5Aza-dC alone? (WISP2): No
- Induced by 5Aza-dC alone? (WIT-1): Yes
- Induced by 5Aza-dC alone? (WNT4): Yes
- Induced by 5Aza-dC alone? (XAGE-1): Yes
- Induced by 5Aza-dC alone? (activity-regulated cytoskeleton-associated protein (APC)): No
- transcripts specifically up-regulated by 5Aza-dC treatment in pancreatic cancers (after excluding those reactivated in HPDE): 590 transcripts
- Induced by 5Aza-dC alone? (aik3): No
- Induced by 5Aza-dC alone? (basic fibroblast growth factor (FGF)): No
- Induced by 5Aza-dC alone? (candidate tumor suppressor gene 21 protein (AF040708)): No
- Induced by 5Aza-dC alone? (connective tissue growth factor (M92934)): No
- Induced by 5Aza-dC alone? (cytovillin 2 (VIL2, ezrin)): No
- Induced by 5Aza-dC alone? (hemoglobin, alpha 1 (HBAI)): Yes
- genes markedly up-regulated by 5Aza-dC treatment (in one or more pancreatic cancer cell lines but not in HPDE): 475 genes
- Induced by 5Aza-dC alone? (interleukin 8): No
- Induced by 5Aza-dC alone? (junction adhesion molecule (AF154005)): No
- Induced by 5Aza-dC alone? (matrix metalloproteinase 8 (MMP3)): No
- Induced by 5Aza-dC alone? (nucleotide-binding site protein 1 (AF298547)): No
- Induced by 5Aza-dC alone? (period homolog 1 (PERI)): Yes
- Induced by 5Aza-dC alone? (prostate differentiation factor (AF003934)): Yes
- Induced by 5Aza-dC alone? (protease inhibitor 12 (neuroserpin) (SERPINU)): No
- average number of transcripts induced per cell line (range 116-251 transcripts): ~200 transcripts
- Induced by 5Aza-dC alone? (synovial sarcoma, X breakpoint 1 (BC001003)): Yes
- Induced by 5Aza-dC alone? (synovial sarcoma, X breakpoint 2 (AF257500)): No
- Induced by 5Aza-dC alone? (tissue factor pathway inhibitor-2 (L27624)): No
- Induced by 5Aza-dC alone? (transketolase-like protein (X91817)): No
